Source: patent US20030162759A1, “Aldosterone blocker therapy to prevent or treat inflammation-related disorders” (priority 2000, published 2003)
“And” between values parts separate entries of the source, which are not always exact repeats. Equal entries are not always repeated. “Also recorded” adds a separate entry of the source.

Key:
Assay type in all cases: in vivo, rat
aldosterone infused rats = assay: Assay B aldosterone infusion model: systolic blood pressure by radio-telemetry; conditions: saline-drinking, uni-nephrectomized Sprague Dawley rats, eplerenone 100 mpk p.o.
Protocol: Assay B: In vivo Aldosterone Infusion Model Male Sprague Dawley rats (n=39; BW=250 g) […] Uni-nephrectomy performed during implantation of mini-pumps 2. Aldosterone ([…], sc via aizet minipump) 2. […] 1. […] SBP measured by radio-telemetry probes inserted in the abdominal aorta Sacrifice after 4 weeks.

[1] = test system: Vascular Cell Adhesion Molecule-1 (VCAM-1); assay: Assay C: VCAM-1 relative mRNA expression in heart (TaqMan); conditions: for VCAM, Mean / VCAM: mRNA; for VCAM, Mean: group mean; for VCAM: individual rats
Protocol: (§1) The procedure of Assay B was expanded upon in a further study. […] Myocardial tissue from animals in each treatment group was examined after 7, 14, or 30 days of treatment.
(§2) Potassium chloride supplementation was added to the saline solution in order to prevent the potential hypokalemia associated with aldosterone excess.
(§3) At the time of the surgery, an Alzet 2002 osmotic minipump (Alza Corp., Palo Alto, Calif.) containing either vehicle (9% ethanol/87% propylene glycol/4% dH2O) or 1.0 mg/mL d-aldosterone (Sigma Chemical, St. Louis, Mo.) was inserted subcutaneously at the nape of the neck. Aldosterone was administered at a dose of 0.75 g/hour. […] Animals were sacrificed from each group (n=8-13) after 7, 14, or 30 days of treatment.
(§4) The fluorogenic 5′-nuclease assay (TaqMan PCR) using Applied Biosystems' 7700 Sequence Detection System (Applied Biosystems, Foster City, Calif.) allowed for real time detection/quantitation of a specific gene by monitoring the increase in fluorescence of a gene-specific, dye-labeled oligonucleotide probe. Probes for target and reference genes were labeled at the 5′-end with a 6-carboxyfluorescein (6FAM) reporter dye and at the 3′-end with a 6-carboxy-N,N,N′,N′-tetramethylrhodamine (TAMRA) quencher dye. When the probe was annealed to the target gene, fluorescence of 6FAM was prevented by the close proximity of TAMRA. The exonuclease activity of Taq polymerase released the dyes from the oligonucleotide probe by displacing the probe from the target sequence resulting in fluorescence excitation in direct proportion to the amount of target message present. Data analysis was performed using the Sequence Detection System software from Applied Biosystems.
(§5) All primers and probes were designed using Primer Express software supplied with the 7700 Sequence Detection System and synthesized by Applied Biosystems. Standard curves using 5-fold dilutions of total RNA (from 200 ng to 320 pg) were performed to determine the efficiency of each primer/probe set in the TaqMan reaction prior to the analysis of the experimental samples. Primer/probe sets were designed from known sequences of rat genes to be analyzed. All target gene values were normalized to a reference gene, constitutively expressed cyclophilin. Primer/probe set sequences can be found in Table 8.
(§6) RNA was extracted from frozen (−80° C.) rat heart tissue using the Totally RNA Isolation Kit (Ambion, Inc., Austin, Tex.). Tissue was crushed using a stainless steel mortar and pestle, which had been chilled to −80° C. and transferred to a dounce homogenizer (Kontes, Vineland, N.J.) containing 3-10 mL cold denaturation buffer. Tissue was homogenized and transferred to a sterile, 15 mL polypropylene centrifuge tube. An equal volume of phenol:chloroform:isoamyl alcohol (25:24:1) was added, samples were shaken vigorously for 1 min, and incubated on ice for at least 15 min. Samples were centrifuged for 30 min at 10,000 g. The aqueous phase was removed, 1/10 volume of a sodium acetate solution (3.0 M NaOAc pH 4.5) was added, samples were shaken or inverted for 10 seconds, and acid-phenol (premixed with isoamyl alcohol):chloroform (5:1, Ambion, Inc.) was added at an volume equivalent to the starting sample volume. Samples were shaken vigorously for 1 min, followed by a 15-min incubation on ice, and centrifuged for 30 min at 10,000 g. The aqueous phase removed and placed in a clean polypropylene tube. An equal volume of isopropanol (Sigma, St. Louis, Mo.) was added and the samples were mixed and incubated overnight at −20° C. The samples were centrifuged for 30 min at 10,000 g, the supernatant was removed and the RNA pellet was resuspended in DNAse/RNAse-free water. Samples were frozen at −80° C. for at least 2 hours, thawed on wet ice, and diluted for quantitation.

[2] = test system: angiotensin II infused rats; assay: Assay A angiotensin II infusion model: systolic blood pressure by tail-cuff; conditions: Wistar rats, 1% NaCl, angiotensin II 25 ng/min sc; eplerenone 100 mpk; 4 weeks
Protocol: Assay A: In Vivo Angiotensin II Infusion Model
Male Wistar rats (n—50, 10/group; BW=200 g)
2. Angiotensin 11 (25 ng/min, sc via aizet minipump)
SBP measured by tail-cuff every week

[3] = test system: Intercellular Adhesion Molecule-1 (ICAM-1); assay: Assay C: ICAM-1 relative mRNA expression in heart (TaqMan); conditions: for ICAM, Mean / ICAM: mRNA; for ICAM, Mean: group mean; for ICAM: individual rats; for ICAM-1 mRNA expression in myocardium: time course 7, 14, 30 days, eplerenone 100 mg/kg/day
Protocol: as §1, §2, §3, §4, §5, §6

[4] = 7 days of treatment, listed as Aldosterone + salt
[5] = 14 days of treatment, listed as Aldosterone + salt
[6] = 30 days of treatment, listed as Aldosterone + salt
[7] = 7 days of treatment, listed as Eplerenone + aldosterone + salt
[8] = 14 days of treatment, listed as Eplerenone + aldosterone + salt
[9] = 30 days of treatment, listed as Eplerenone + aldosterone + salt

C[C@]12CCC(=O)C=C1CC[C@@H]1[C@@H]2[C@@H](O)C[C@]2(C=O)[C@@H](C(=O)CO)CC[C@@H]12 [aldosterone]
Systolic Blood Pressure (aldosterone infused rats): Systolic blood pressure increased
VCAM-1 gene expression increase ([1]; day 30 of aldosterone+salt treatment, did not reach statistical significance): increased two-fold
VCAM, Mean ([1]; 30 days of treatment): 2.14 AU
VCAM [1, 4]: 0.85 AU and 0.61 AU and 0.94 AU and 0.27 AU
VCAM [1, 5]: 0.89 AU and 0.69 AU and 0.84 AU and 0.72 AU
VCAM [1, 6]: 0.72 AU
Systolic Blood Pressure [2]: increased blood pressure
ICAM, Mean ([3]; 14 days of treatment): 1.47 AU
ICAM, Mean ([3]; 30 days of treatment): 1.81 AU
ICAM [3, 4]: 1.39 AU and 0.80 AU and 1.68 AU
ICAM [3, 5]: 1.16 AU
ICAM [3, 6]: 1.50 AU
ICAM-1 mRNA expression in myocardium [3]: upregulated at day 14 and 30

COC(=O)[C@@H]1CC2=CC(=O)CC[C@]2(C)[C@@]23O[C@@H]2C[C@@]2(C)[C@@H](CC[C@@]24CCC(=O)O4)[C@H]13 [eplerenone, Pregn-4-ene-7,21-dicarboxylic acid, 9,11-epoxy-17-hydroxy-3-oxo-, γ-lactone, methyl ester, (7α, 11α, 17β) -]
Systolic Blood Pressure (aldosterone infused rats): significantly reduced, but did not normalize blood pressure; also recorded: depression of this elevation
VCAM, Mean ([1]; 7 days of treatment): 0.56 AU
VCAM, Mean ([1]; 14 days of treatment): 0.83 AU
VCAM, Mean ([1]; 30 days of treatment): 1.04 AU
VCAM [1, 7]: 0.67 AU and 0.58 AU and 0.22 AU and 0.57 AU and 0.53 AU and 1.00 AU
VCAM [1, 8]: 0.54 AU and 0.66 AU and 0.61 AU (2×) and 0.67 AU and 0.86 AU and 1.00 AU and 0.68 AU (2×) and 1.60 AU
VCAM [1, 9]: 0.79 AU and 0.52 AU and 0.57 AU and 0.61 AU
VCAM-1 mRNA expression in myocardium ([1]; time course 7, 14, 30 days, eplerenone 100 mg/kg/day): significantly reduced; also recorded: inhibition of early time-course expression of myocardial ICAM-1 and VCAM-1
Systolic Blood Pressure [2]: Neither eplerenone nor adrenalectomy reduced blood pressure
ICAM, Mean ([3]; 7 days of treatment): 0.83 AU
ICAM, Mean ([3]; 14 days of treatment): 1.19 AU
ICAM, Mean ([3]; 30 days of treatment): 1.22 AU
ICAM [3, 7]: 0.91 AU and 0.89 AU (2×) and 0.40 AU and 0.58 AU and 1.00 AU
ICAM [3, 8]: 1.20 AU and 0.95 AU and 1.26 AU and 1.56 AU and 0.98 AU (2×) and 0.79 AU and 0.83 AU
ICAM [3, 9]: 1.21 AU and 1.26 AU and 0.60 AU and 0.99 AU
ICAM-1 mRNA expression in myocardium [3]: significantly reduced; also recorded: inhibition of early time-course expression of myocardial ICAM-1 and VCAM-1
